We go through 33 molecules from patent US20220256889A1, “PEPTIDES THAT MODULATE CALCIUM-SENSING RECEPTOR ACTIVITY FOR MODULATING KOKUMI TASTE AND PET FOOD PRODUCTS CONTAINING THE SAME” (MARS, INCORPORATED, priority 2019, published 2022).

Where a SMILES comes first, the peptide text is derived from it. Where no end group is shown, it is not given here. [ ]: non-standard residue; d: D form. pY = N[CH](Cc1ccc(OP(=O)(O)O)cc1)C(=O)O; pT = C[CH](OP(=O)(O)O)[CH](N)C(=O)O; pS = N[CH](COP(=O)(O)O)C(=O)O

The labels stand for the following.
B1: Asp-Val-Glu (peptide)
peptide: DVE

The first assay deals with feline CaSR (Felis catus, UniProt A0ABI7YY68). Put plainly: HEK T-Rex/natClytin-fCaSR luminescence assay, activation of feline CaSR. Format: cell-based.
Conditions: not given
Here is the method: The cells used for the assays were HEK293 derived HEK T-Rex/natClytin-fCaSR cells. For the assays, the cells were plated on […] culture plates with a clear bottom for reading the luminescence in the wells. The setup of the assay for standard assays on the FlexStation was as follows. The wells containing the cells had 20 ul of calcium-free Tyrode's buffer at the beginning of the assay. 20 ul of each ligand at a specified concentration was injected on the cells and the response of the cells was measured for 90 sec at 1.94 sec intervals. The resulting curves were analyzed and reduced using the software provided by Molecular Devices, SoftMax Pro (version 5.4.1).
Each peptide was assayed on two separate occasions at least, with four repetitions of each concentration applied to the cells. In parallel, the same tests were run on a mock cell line with a mock vector, in order to confirm the specificity of any signals measured.
The data obtained from the FlexStation was used to trace dose-response curves for each ligand. These graphs were plotted using GraphPad Prism 7.03 software with the [Agonist] vs. response—Variable slope (four parameters) plot. The same formula was used to calculate the EC50 value with the associated Standard Error. Each plot contains the mean data points with an SEM calculated by the software for each data point.
One of the concerns during the planning of these assays was that it was possible that some of these peptides could bind the divalent calcium cation and cause a non-specific response from the receptor. In order to ensure that the interaction between the receptor and the peptides was measured and not with calcium, the peptides were synthesized in guaranteed calcium-free conditions. Similarly, all the assays were performed using calcium-free reagents.
A word on the EC50: it is the midpoint of the concentration-response curve. For the molecule `CC(NC(=O)C(N)CC(=O)O)C(=O)NC(CCC(=O)O)C(=O)O` (stereo not drawn) [Asp-Ala-Glu] (H-Asp-Ala-Glu-OH; configuration not given here), it took 3.54 ± 0.05 mM to reach a half-maximal effect (EC50).

Take `NC(CC(=O)O)C(=O)NC(CCC(=O)O)C(=O)NC(CCC(=O)O)C(=O)O` (stereo not drawn) [Asp-Glu-Glu] (H-Asp-Glu-Glu-OH; configuration not given here): the EC50 amounted to 2.59 ± 0.09 mM.

`CC(C)C(NC(=O)C(N)CC(=O)O)C(=O)NC(CC(=O)O)C(=O)O` (stereo not drawn) [Asp-Val-Asp] (H-Asp-Val-Asp-OH; configuration not given here) had an EC50 of 3.41 ± 0.05 mM.

As to `CC(C)C(NC(=O)C(N)CC(=O)O)C(=O)NC(CCC(=O)O)C(=O)O` (stereo not drawn) [BC 01, Asp-Val-Glu] (H-Asp-Val-Glu-OH; configuration not given here), the half-maximal effective concentration (EC50) worked out at 3.3 ± 0.15 mM.

For `CC[C@H](C)[C@H](N)C(=O)NCC(=O)N[C@@H](COP(=O)(O)O)C(=O)N[C@@H](CCC(=O)O)C(=O)N[C@@H](COP(=O)(O)O)C(=O)N[C@H](C(=O)N[C@@H](CCC(=O)O)C(=O)N[C@@H](CC(=O)O)C(=O)N[C@@H](CCC(N)=O)C(=O)O)[C@@H](C)O` [BC 06, Ile-Gly-pSer-Glu-pSer-Thr-Glu-Asp-Gln] (H-IG[pS]E[pS]TEDQ-OH; N-terminus and C-terminus assumed), the 50% effective concentration (EC50) is about 1.6 mM.

`CC(C)C(NC(=O)C(N)CS)C(=O)NC(CS)C(=O)O` (stereo not drawn) [Cys-Val-Cys] (H-Cys-Val-Cys-OH; configuration not given here): the EC50 is about 12.6 mM.

`N[C@@H](CCC(=O)O)C(=O)O` [Glu, glutamic acid, reference compound] came in with an EC50 of about 5.9 mM.

In turn, `CC(C)C(NC(=O)C(N)CCC(=O)O)C(=O)NC(CC(=O)O)C(=O)O` (stereo not drawn) [Glu-Val-Asp] had an EC50 of 3.32 ± 0.77 mM.

The molecule `CC(C)C(NC(=O)C(N)CCC(=O)O)C(=O)NC(CCC(=O)O)C(=O)O` (stereo not drawn) [Glu-Val-Glu] (H-Glu-Val-Glu-OH; configuration not given here) gave a concentration for a half-maximal effect (EC50) of 3.54 ± 0.05 mM.

On to `NC(CO)C(=O)NC(CCC(=O)O)C(=O)NC(CO)C(=O)O` (stereo not drawn) [Ser-Glu-Ser] (H-Ser-Glu-Ser-OH; configuration not given here), for which the midpoint of the response, the EC50, lay at 3.56 ± 0.11 mM.

In turn, `CC(C)C(NC(=O)C(N)COP(=O)(O)O)C(=O)NC(CCC(=O)O)C(=O)O` (stereo not drawn) [pSer-Val-Glu] (H-[pS]-Val-Glu-OH; configuration not given here) displayed an EC50 of 3.04 ± 0.03 mM.

For the molecule `NC(Cc1ccc(OP(=O)(O)O)cc1)C(=O)NC(CCC(=O)O)C(=O)NC(Cc1ccc(OP(=O)(O)O)cc1)C(=O)O` (stereo not drawn) [pTyr-Glu-pTyr] (H-[pY]-Glu-[pY]-OH; configuration not given here), a half-maximal effect (EC50) was put at 2.22 ± 0.22 mM.

In turn, `CC(C)[C@H](NC(=O)CC[C@H](N)C(=O)O)C(=O)NCC(=O)O` [γ-Glu-Val-Gly, reference compound] came in with an EC50 of 5.78 ± 2.41 mM.

Staying with this assay, now noted: HEK T-Rex/natClytin-fCaSR cells, calcium-free Tyrode's buffer; ≈ values are model estimates without standard error; read-out: EC50 ± Std Error.
As to `N[C@@H](CC(=O)O)C(=O)O` [Asp, aspartic acid, reference compound], the half-maximal effective concentration (EC50) was about 6.1 mM.

Regarding `[Ca+2].[Cl-].[Cl-]` [CaC12, CaCl2, reference compound], the half-maximal effective concentration (EC50) is 1.6 ± 0.06 mM.

For the molecule `N[C@@H](CCC(=O)N[C@@H](CS)C(=O)NCC(=O)O)C(=O)O` [GSH, reference compound], the concentration for a half-maximal effect (EC50) was 6.71 ± 0.57 mM.

On to `[Cl-].[Cl-].[Mg+2]` [MgC12, reference compound], for which the EC50 was 6.72 ± 0.13 mM.

`NC(COP(=O)(O)O)C(=O)NC(CCC(=O)O)C(=O)NC(COP(=O)(O)O)C(=O)O` (stereo not drawn) [pSer-Glu-pSer] (H-[pS]-Glu-[pS]-OH; configuration not given here): the concentration for a half-maximal effect (EC50) is 3.04 ± 0.21 mM.

On to `CC(C)C(NC(=O)C(N)COP(=O)(O)O)C(=O)NC(COP(=O)(O)O)C(=O)O` (stereo not drawn) [pSer-Val-pSer] (H-[pS]-Val-[pS]-OH; configuration not given here), for which the EC50 is 2.63 ± 0.04 mM.

In the case of `CC(OP(=O)(O)O)C(N)C(=O)NC(CCC(=O)O)C(=O)NC(C(=O)O)C(C)OP(=O)(O)O` (stereo not drawn) [pThr-Glu-pThr] (H-[pT]-Glu-[pT]-OH; configuration not given here), the concentration giving a half-maximal response (EC50) was 1.98 ± 0.07 mM.

Turning to `CSCC[C@H](NC(=O)CC[C@H](N)C(=O)O)C(=O)O` [γ-Glu-Met, reference compound], the EC50 was about 6.7 mM.

On to `N[C@@H](CCC(=O)N[C@@H](Cc1ccccc1)C(=O)O)C(=O)O` [γ-Glu-Phe, reference compound], for which the EC50 is about 7.8 mM.

For the molecule `N[C@@H](CCC(=O)N[C@@H](Cc1ccc(O)cc1)C(=O)O)C(=O)O` [γ-Glu-Tyr, reference compound], the EC50 was about 6.9 mM.

In the case of `CC(C)[C@H](NC(=O)CC[C@H](N)C(=O)O)C(=O)O` [γ-Glu-Val, reference compound], the EC50 is about 3.9 mM.

Another assay deals with feline Kokumi taste receptor (f-CaSR). Put plainly: feline Kokumi taste receptor assay (f-CaSR), agonistic activity of isolated samples. Format: cell-based. As to conditions: isolated samples from hydrolysate T648. Here is the method:
Aliquots of the isolated samples were tested for their agonistic activity in feline Kokumi taste receptor assays (f-CaSR).
For 5-oxoproline-Lys-Glu-Pro [BC 02], the “f-CaSR activity (EC50)” value is given as “Not active”.

Regarding `CC(C)C(NC(=O)C(N)CC(=O)O)C(=O)NC(CCC(=O)O)C(=O)O` (stereo not drawn) [BC 01, Asp-Val-Glu] (H-Asp-Val-Glu-OH; configuration not given here), the 50% effective concentration (EC50) worked out at 6.32 mM.

In the case of `CC[C@H](C)[C@H](N)C(=O)NCC(=O)N[C@@H](COP(=O)(O)O)C(=O)N[C@@H](CCC(=O)O)C(=O)N[C@@H](COP(=O)(O)O)C(=O)N[C@H](C(=O)N[C@@H](CCC(=O)O)C(=O)N[C@@H](CC(=O)O)C(=O)N[C@@H](CCC(N)=O)C(=O)O)[C@@H](C)O` [BC 06, Ile-Gly-pSer-Glu-pSer-Thr-Glu-Asp-Gln] (H-IG[pS]E[pS]TEDQ-OH; N-terminus and C-terminus assumed), a half-maximal effect (EC50) was put at 2 mM.

Regarding `CC[C@H](C)[C@H](N)C(=O)NCC(=O)N[C@@H](COP(=O)(O)O)C(=O)N[C@@H](CCC(=O)O)C(=O)N[C@@H](COP(=O)(O)O)C(=O)N[C@H](C(=O)N[C@@H](CCC(=O)O)C(=O)N[C@@H](CC(=O)O)C(=O)N[C@@H](CCC(N)=O)C(=O)N[C@@H](C)C(=O)O)[C@@H](C)O` [BC 08, Ile-Gly-pSer-Glu-pSer-Thr-Glu-Asp-Gln-Ala] (H-IG[pS]E[pS]TEDQA-OH; N-terminus and C-terminus assumed), the EC50 was 2 mM.

As to `CC[C@H](C)[C@H](NC(=O)[C@@H](N)CCC(=O)O)C(=O)N[C@H](C(=O)N1CCC[C@H]1C(=O)N[C@@H](CC(N)=O)C(=O)N[C@@H](COP(=O)(O)O)C(=O)N[C@@H](C)C(=O)N[C@@H](CCC(=O)O)C(=O)N[C@@H](CCC(=O)O)C(=O)O)C(C)C` [BC 09, Glu-Ile-Val-Pro-Asn-pSer-Ala-Glu-Glu] (H-EIVPN[pS]AEE-OH; N-terminus and C-terminus assumed), the EC50 amounted to 3.16 mM.

`CC[C@H](C)[C@H](NC(=O)[C@@H](N)CC(=O)O)C(=O)NCC(=O)N[C@@H](COP(=O)(O)O)C(=O)N[C@@H](CCC(=O)O)C(=O)N[C@@H](COP(=O)(O)O)C(=O)N[C@H](C(=O)N[C@@H](CCC(=O)O)C(=O)N[C@@H](CC(=O)O)C(=O)N[C@@H](CCC(N)=O)C(=O)N[C@@H](C)C(=O)O)[C@@H](C)O` [BC 10, Asp-Ile-Gly-pSer-Glu-pSer-Thr-Glu-Asp-Gln-Ala] (H-DIG[pS]E[pS]TEDQA-OH; N-terminus and C-terminus assumed) came in with an EC50 of 2 mM.

A further assay addresses T1, feline calcium-sensing receptor (CaSR) (feline (cat)).
T1 chain: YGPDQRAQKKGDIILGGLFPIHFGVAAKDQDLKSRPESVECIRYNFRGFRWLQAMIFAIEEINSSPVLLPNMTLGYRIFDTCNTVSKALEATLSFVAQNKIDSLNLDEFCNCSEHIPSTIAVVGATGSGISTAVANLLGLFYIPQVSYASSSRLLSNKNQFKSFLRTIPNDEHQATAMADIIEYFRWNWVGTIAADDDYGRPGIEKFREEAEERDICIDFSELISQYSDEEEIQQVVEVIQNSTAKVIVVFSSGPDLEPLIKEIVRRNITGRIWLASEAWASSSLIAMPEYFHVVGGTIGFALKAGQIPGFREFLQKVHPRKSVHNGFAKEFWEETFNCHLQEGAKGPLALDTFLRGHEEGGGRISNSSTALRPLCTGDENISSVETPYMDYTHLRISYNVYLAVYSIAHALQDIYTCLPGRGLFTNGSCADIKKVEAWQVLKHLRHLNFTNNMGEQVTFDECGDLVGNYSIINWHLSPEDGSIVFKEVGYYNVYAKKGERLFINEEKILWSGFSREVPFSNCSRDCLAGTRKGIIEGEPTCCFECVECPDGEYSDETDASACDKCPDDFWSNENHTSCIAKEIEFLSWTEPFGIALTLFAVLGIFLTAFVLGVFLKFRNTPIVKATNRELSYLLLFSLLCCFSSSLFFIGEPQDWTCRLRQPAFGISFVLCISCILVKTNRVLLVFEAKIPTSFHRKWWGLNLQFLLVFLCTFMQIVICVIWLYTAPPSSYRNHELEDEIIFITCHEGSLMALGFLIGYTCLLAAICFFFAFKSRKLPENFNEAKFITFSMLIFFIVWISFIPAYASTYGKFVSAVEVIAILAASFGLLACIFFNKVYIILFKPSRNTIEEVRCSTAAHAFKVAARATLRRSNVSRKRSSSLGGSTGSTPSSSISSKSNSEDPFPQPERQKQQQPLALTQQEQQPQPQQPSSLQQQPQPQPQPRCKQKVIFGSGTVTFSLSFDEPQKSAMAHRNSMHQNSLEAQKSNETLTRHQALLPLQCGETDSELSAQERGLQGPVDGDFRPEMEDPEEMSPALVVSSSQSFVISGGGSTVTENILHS
Kind of assay: cell-based or functional assay.
Conditions: not given
In the case of B1, the “f-CaSR activity (EC50)” value amounted to 6.32 mM.

Another assay deals with feline calcium-sensing receptor (CaSR) (feline (cat)). Kind of assay: cell-based or functional assay.
Conditions: not given
In the case of DIG[pS]E[pS]TEDQA, the f-CaSR activity (EC50) came to 2 mM.

Turning to EIVPN[pS]AEE, the f-CaSR activity (EC50) amounted to 3.16 mM.

Regarding IG[pS]E[pS]TEDQ, the f-CaSR activity (EC50) was 2 mM.

As to IG[pS]E[pS]TEDQA, the f-CaSR activity (EC50) was found to be 2 mM.
